The subject of one experiment is amphetamine use. Nature of the experiment: Amphetamine / methamphetamine craving and withdrawal. The experiment is classed as in vivo, human. Particulars: naltrexone implants, plasma concentration maintained at 2 ng/ml or higher. Here is the method:
In those patients that return 2-3 weeks with extreme anxiety and a desire to return to amphetamine use, the commencement of flumazenil infusions followed by a flumazenil implant that sustains a plasma concentration of flumazenil at 0.5-2 ng/ml or more decreases the cravings, including a decrease in the desire for amphetamines and allows reduction f irritability and aggression.

Another experiment relates to cocaine use. Nature of the experiment: Cocaine craving in patients with naltrexone implants. The experiment is classed as in vivo, human. Particulars: approximately 15 patients, reported by most. The source says:
Approximately 15 […] patients have presented specifically for the control of their cocaine use using naltrexone implants. Approximately a third of these patients were from the United Kingdom, a third from Sydney, Australia and a third from Perth, Australia. This group of patients reported a reduction in craving with naltrexone implants, and most reported a reduction in cravings for 6-12 months after receiving the implant. Approximately half returned for repeat implants based on their observations that the naltrexone implant controlled their cravings.

In a further experiment the test system is PTSD. The experiment in a line: PTSD patients treated with flumazenil and/or naltrexone. In kind it is in vivo, human. Particulars: severe case, had occurred for 6 years; naltrexone implant inserted. The source says:
Post Trauma Stress Disorder (PTSD), causes dysregulation of anxiety control that may damage the GABAA system and present as hypervigilance, sleep disturbance, anxiety, gastrointestinal (GIT) or bladder symptoms. We have been using flumazenil for more than 8 years to treat patients presenting complex. The infusions and implants give relief to the anxiety, sleep disturbance and the GIT symptoms as well as urinary symptoms in many well established PTSD patients.
Sleep remained normal following this. The profound recovery of sleep in patients with PTSD using flumazenil and naltrexone by continuous delivery has not previously been described.

A further experiment has as its system HPA axis. The experiment in a line: HPA axis in stressed animals. In kind it is in vivo. The text has this:
For this reason the combination of sustained release naltrexone and sustained release flumazenil using injections, implants or infusions would be expected to limit neuro-inflammatory diseases and their symptoms.

Another experiment relates to craving for nicotine. The experiment in a line: Nicotine craving and use in patients. In kind it is in vivo, human. The following applies: flumazenil by infusion or nasally/sublingually 50 to 200 micrograms per dose.
Another experiment relates to alcohol use. The experiment in a line: Return to alcohol use on naltrexone with or without flumazenil. In kind it is in vivo, human. Particulars: naltrexone 2 ng/ml; flumazenil 40 to 160 μg/hour where combined. The procedure:
We have observed that in this group of patients complain of increased irritability, increased anxiety, increased sleep disturbance, and/or increased aggressive behaviour. However, when administered together with flumazenil at a concentration of 40 to 160 μg/hour, these systems are controlled.
For patients with a history of relapse on naltrexone implants, the use of sustained release flumazenil with infusions initially and with a series of sustained release flumazenil implants delivering 40-160 μg/hour to sustain a concentration of 0.5 ng/ml or more appear to be useful in controlling the return to alcohol use. For example, we have shown that in women with a history of irritability and return to drinking in the premenstrual days, this treatment with sustained release flumazenil in combination with naltrexone, reduces craving and relapse patterns.

In another experiment the test system is cannabis withdrawal. Nature of the experiment: Withdrawal from cannabis with high THC concentrations. Particulars: naltrexone implants, plasma concentration 0.5 ng/ml to 10 ng/ml or more. The experiment is classed as in vivo, human. The text has this: Cannabis use has changed in recent years with a significant cohort describing high tetrahydrocannabinol (THC) concentrations in potent strains which are cultivated for their high THC content. In the patient group using these high concentrations of THC, we have noted that a group of patients give a clear cut history of extreme nausea, vomiting, anxiety changing to serious paranoid thoughts and delusions followed by psychosis over the first 3-5 days of ceasing drug use.
In a severe patient population, ondansetron may be given every 6-8 hours to assist in reducing the nausea and associated anxiety symptoms.
Our results indicated a clear reduction in anxiety, and paranoid symptoms, allowing patients who otherwise would be unable to cope with the symptoms, to cease cannabis use.

On to `O=C1CC[C@@]2(O)[C@H]3Cc4ccc(O)c5c4[C@@]2(CCN3CC2CC2)[C@H]1O5` [naltrexone], for which the “craving for amphetamine use” value in the experiment with amphetamine use is listed as “significant reduction in craving”. Also, the “duration of reduction in cravings after receiving the implant” value with cocaine use is given as 6-12 months. Besides, the “waking at 2 am with shouting and anxiety” value in the experiment on PTSD is on record as “stopped immediately”. Besides, in the experiment on HPA axis, the “return of the HPA axis to normal” value is given as “help return the HPA axis”. Moreover, the “craving for and use of nicotine” value with craving for nicotine was “reduced craving for nicotine”. The “return to alcohol use” value in the experiment on alcohol use is “return to drinking alcohol”. Also, the “cannabis craving and impulse control” value in the experiment on cannabis withdrawal was “reduces the craving and improves impulse control”.

Values taken from patent publication US20220152044A1, “TREATMENT OF INFLAMMATORY DISEASES OF THE CENTRAL NERVOUS SYSTEM” (PALMAYA PTY LTD, priority 2019, published 2022).
